Values of other authors in PMC8371712 (ACS chemical biology, 2021).

Tests used:
[1] = system: various microsomal cytochrome P450 enzymes; details: margin of safety statement; no reference given
[2] = system: hERG potassium ion channel; details: margin of safety statement; no reference given
[3] = system: alanine aminotransferase; details: margin of safety statement; no reference given
[4] = system: aspartate aminotransferase; details: margin of safety statement; no reference given
[5] = system: Cerep SpectrumScreen panel of 176 pharmacological targets
[6] = no reference given
[7] = system: release of dopamine in the corpus striatum; details: no reference given

Structure (SMILES): N[C@H]1C=C(C(=O)O)CC1=C(F)F [OV329, (S)-3-amino-(difluoromethylenyl)cyclopent-1-ene-1-carboxylic acid]
- activity against microsomal cytochrome P450 enzymes [1]: lack of activity
- activity against hERG potassium ion channel [2]: lack of activity
- activity against alanine aminotransferase [3]: lack of activity
- activity against aspartate aminotransferase [4]: lack of activity
- activity in Cerep SpectrumScreen panel [5]: lack of activity
- Ames test [6]: negative
- release of dopamine in the corpus striatum [7]: blocks the release of dopamine
